# Like-named read-outs stand apart in the source and are kept apart here.
# Legend:
# [1] = tested on: HIV-1 RF; experiment: Cell protection assay (MTT dye reduction): acute infection of CEM-SS cells with HIV-1 RF; assay type: cell-based, HIV-1 strain RF (in human T cell line CEM-SS); details: for EC95: read-out: ED95; for Therapeutic index: TC50/ED50, CEM-SS cells, 8640 min
# Protocol: (§1) The CEM-SS and MT-2 human T cell lines and HIV-1 strains RF and IIIB were obtained from the AIDS Research and Reference Program, Division of AIDS, NIAID, and NIH.
# (§2) The inhibitory effects of each agent on HIV-1 replication were measured by the MTT dye reduction method (Alley, M. C. et al., Cancer Res. 48: 589-601 (1988)). Compounds were dissolved in DMSO at a concentration of 40 mg/ml then diluted 1:200 in culture medium (RPMI, supplemented with 10% fetal bovine serum). From each diluted stock, 100 μl was added to a 96-well plate and serial half-log dilutions were prepared. In separate tubes, MT-2 cells and CEM-SS cells were infected with HIV-1 IIIB or HIV-1 RF at a multiplicity of infection (m.o.i.) of 0.01 and 0.03, respectively. Following a 4-hour adsorption period, […] of infected or uninfected cells were added to the wells of the drug containing plate to give a final concentration of 1×10^4 cells/well. Six days (CEM-SS cells) or 7 days (MT-2 cells) later, MTT (5 mg/ml) was added to test plates and the amount of formazan produced was quantified spectrophotometrically at 570 nm. Data were expressed as the percentage of formazan produced in drug-treated cells compared to formazan produced in wells of uninfected, drug-free cells. The EDS50 was calculated as the concentration of drug that increased the percentage of formazan production in infected, drug-treated cells to 50% of that produced by uninfected, drug-free cells. Cytotoxicity (TC50) was calculated as the concentration of drug that decreased the percentage of formazan produced in uninfected, drug-treated cells to 50% of that produced in uninfected, drug-free cells. The therapeutic index (TI) was calculated by dividing the cytotoxicity (TC50) by the antiviral efficacy (ED50).
# [2] = Cytotoxicity in uninfected CEM-SS cells (MTT); assay type: cell-based; details: human
# Protocol: as §1, §2
# [3] = tested on: HIV-1 IIIB; experiment: Cell protection assay (MTT dye reduction): acute infection of MT-2 cells with HIV-1 IIIB; assay type: cell-based, HIV-1 strain IIIB (in human T cell line MT-2); details: for Therapeutic: therapeutic index TC50/ED50, MT-2 cells, 10080 min
# Protocol: as §1, §2
# [4] = Cytotoxicity in uninfected MT-2 cells (MTT); assay type: cell-based; details: human
# Protocol: as §1, §2
# [5] = biological target: T1, HIV-1 protease (Q7S) (Human immunodeficiency virus type 1 group M subtype B, UniProt P03366, Q507S); experiment: Tight-binding kinetics assay, HIV-1 protease inhibition (modified chromogenic assay); assay type: biochemical, HIV-1 (viral strain IIIB)
# T1 construct: HIV-1 protease gene was isolated from the viral strain IIIB; made in house; host or cells: E. coli BL21(DE3), plasmid pGZ/HP-19Q7S#9
# Protocol: Proteolytic activity of purified HIV-1 protease was measured using a modified chromogenic assay developed by Richards at al. (Richards, A. D. et al. J. Biol. Chem., 256, 773-7736 (1990)). […] The assay was carried out in 0.5 M NaCl, 50 mM MES pH 5.6, 5 mM DDT, and 2% DMSO at 37° C. Cleavage of the scissile bond between leucine and paranitro-phenylalanine (Phe para-NO2) was assayed by spectrophotometric monitoring of the decrease on absorbance at 305 nm.
# [6] = Metabolite obtained from the plasma of patients; assay type: in vivo; details: plasma of patients administered the N-t-butylcarboxamide methanesulfonic acid salt of U.S. Pat. No. 5,484,926
# Source text: A process for making compound 21 is provided below.
# [7] = uninfected CEM-SS cells, 6 days, read-out: TC50
# [8] = uninfected MT-2 cells, 7 days, read-out: TC50
# [9] = Human immunodeficiency virus 1, 144 h, CEM-SS cells, HIV-1 RF, m.o.i. 0.03, 6 days, read-out: ED50 (the source's name)
# [10] = Human immunodeficiency virus 1, 144 h, CEM-SS cells, HIV-1 RF, m.o.i. 0.03, 6 days
# [11] = Human immunodeficiency virus 1, MT2, 168 h, MT-2 cells, HIV-1 IIIB, m.o.i. 0.01, 7 days, read-out: ED50 (the source's name)
Compound,"EC50 ([1]; Human immunodeficiency virus 1, CEM-SS, 144 h, read-out: ED50) [nM]","EC95 ([1]; Human immunodeficiency virus 1, CEM-SS, 144 h) [nM]",Therapeutic index ([1]; HIV-1 RF),"CC50 at 144 h [2, 7] [nM]","EC50 ([3]; Human immunodeficiency virus 1, IIIB, MT2, 168 h, read-out: ED50) [nM]",Therapeutic ([3]; HIV-1 IIIB),"CC50 at 168 h [4, 8] [nM]","Ki ([5]; tight binding kinetics, 200 uM substrate, pH 5.6, 37° C., Morrison fit) [nM]","EC50 [1, 9] [nM]","EC95 [1, 10] [nM]","EC50 [3, 11] [nM]",obtained as a metabolite [6],CC50 at 144 h ([2]; cem-ss cells) [nM],CC50 at 168 h ([4]; mt-2 cells) [nM],"Km ([5]; substrate, Q7S HIV-1 protease, 0.5 M NaCl, 50 mM MES pH 5.6, 2% DMSO, 37° C., read-out: Michaelis constant (Km)) [µM]"
"Cc1cn([C@H]2C[C@H](N=[N+]=[N-])[C@@H](CO)O2)c(=O)[nH]c1=O [AZT, azidothymidine]",52.3,543,> 7161,> 374000,431,254,109000,–,–,–,–,–,–,–,–
"Cc1c(O)cccc1C(=O)NC(CSc1ccccc1)C(O)CN1CC2CCCCC2CC1C(=O)NC(C)(C)CO (stereo not drawn) [Compound 21, [3S-[2(2S*,3S*),3 alpha,4abeta,8abeta]]-N-(1,1-dimethyl-2-hydroxyethyl)decahydro-2-[2-hydroxy-3-[(3-hydroxy-2-methylbenzoyl)amino]-4-(phenylthio)butyl]-3-isoquinolinecarboxamide]",–,–,2825,96600,–,1082,92600,5.6 ± 0.91,34.2,154,85.6,obtained as a metabolite from the plasma of patients,–,–,–
"Nc1ccn([C@H]2CC[C@@H](CO)O2)c(=O)n1 [ddC, dideoxycytidine]",–,–,398,–,–,30,–,–,94.7,142,5920,–,37700,176000,–
His-Lys-Ala-Arg-Val-Leu-Phe(paraNO2)-Glu-Ala-Nle-Ser-NH2,–,–,–,–,–,–,–,–,–,–,–,–,–,–,59 ± 17
